Measured values from patent US6107070A, “Human manganese superoxide dismutase proteins” (University of Florida, priority 1998, dated 2000).
Residue numbers refer to the chain shown, from its start. “And” between values parts separate entries of the source, which are not always exact repeats. Equal entries are not always repeated.

Legend:
Format in all cases: biochemical
[1] = target: T1, human manganese superoxide dismutase (hMn SOD) variant H30Q (His 30 replaced by Gln) (Homo sapiens, UniProt P04179, H54Q); assay: Disproportionation of superoxide by H30Q hMnSOD, stopped-flow, 20° C.; details: pH 9.6, 20° C.
T1 construct: as a mature protein tagged with an extra Met at the amino terminus; made in house
T1 sequence (P04179 25-222 H54Q): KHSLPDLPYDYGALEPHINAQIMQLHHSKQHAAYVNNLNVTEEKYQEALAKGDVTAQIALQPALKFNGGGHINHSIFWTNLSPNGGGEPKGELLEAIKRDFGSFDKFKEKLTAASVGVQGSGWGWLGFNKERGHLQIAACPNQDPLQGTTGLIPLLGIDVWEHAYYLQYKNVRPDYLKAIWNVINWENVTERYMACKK
Method: (§1) Experiments were based on the stabilization of KO2 in aprotic solvent and the subsequent large dilution of this solution by an aqueous solution of enzyme in a stopped-flow apparatus, as described by McClune and Fee (1978). KO2 was dissolved in a mixture of dimethyl sulfoxide and […] (2:1 by volume; Aldrich, spectrophotometric grade) with solubility of KO2 enhanced with 18-crown-6 (Valentine and Curtis, 1975). The stopped-flow spectrophotometer (Kinetic Instruments, Ann Arbor, Mich.) was capable of efficient mixing of this solution with an acqueous solution of enzyme in buffer with a dead time between 1.5 and 2.0 ms. One drive syringe (capacity 50 μl) contained the aprotic solution of O2. This was diluted fifty-fold by the contents of a second syringe (capacity 2.5 ml) which contained enzyme, EDTA, and buffer. The decay of superoxide in initial velocity experiments and progress curves was monitored by its absorption at 250 to 300 nm. Stopped-flow experiments were carried out at […]. Four or more kinetic traces were averaged to reduce noise. Steady-state parameters were obtained by least-squares analysis of such data (Leatherbarrow (1987) "Enzfitter: a nonlinear regression data analysis program for the IBM PC" Elsevier BIOSOFT, Cambridge).
(§2) In the present study, several novel hMnSOD proteins containing substitutions of His 30 (referring to the amino acid sequence of SEQ ID NO:2) were prepared by PCR site directed mutagenesis and purified by column chromatography, as described in the Materials and Methods section above, and as also described by Hsu et al. (1996) J. Biol. Chem. 271: 1768; and Hsieh et al. (1998) Biochemistry 37: 4731. In particular, His 30 was substituted with each of Ala, Asn, Ser and Gln. The resulting novel hMnSOD proteins containing a His 30 substitution were then assayed for enzymatic activity and product inhibition at 20° C. by measuring the absorbance of superoxide at 250 nm using stopped-flow spectrophotometry, as described above in the Materials and Methods section. […]

[2] = target: T2, human manganese superoxide dismutase (hMn SOD) variant Y34F (Tyr34Phe) (Homo sapiens, UniProt P04179, Y58F); assay: Disproportionation of superoxide by Y34F hMnSOD, Example 3 (Tables 4 and 5), 20° C.
T2 construct: as a mature protein tagged with an extra Met at the amino terminus; made in house; host or cells: E. coli QC774 (SodA/SodB mutant), pTrc99A
T2 sequence (P04179 25-222 Y58F): T1 sequence (P04179 25-222 H54Q) with Q30H, Y34F
Method: as §1, §2

[3] = target: T3, human manganese superoxide dismutase (hMn SOD), wild type, SEQ ID NO:2 (Homo sapiens, UniProt P04179); assay: Disproportionation of superoxide by wild type hMnSOD, Example 3 (Tables 4 and 5), 20° C.
T3 construct: where it is then cleaved off leaving the mature protein
T3 sequence (P04179 25-222): T1 sequence (P04179 25-222 H54Q) with Q30H
Method: as §1, §2

[4] = target: T4, human manganese superoxide dismutase (hMn SOD) variant H30E (Homo sapiens, UniProt P04179, E155Q/H54E); assay: Disproportionation of superoxide by H30E hMnSOD, 20° C.; details: Table 4; pH 9.4, 20° C.
T4 construct: as a mature protein tagged with an extra Met at the amino terminus; made in house
T4 sequence (P04179 25-222 H54E/E155Q): T1 sequence (P04179 25-222 H54Q) with Q30E, E131Q

[5] = target: T5, human manganese superoxide dismutase (hMn SOD) variant Q143N (Gln 143 replaced by Asn), SEQ ID NO:3 (Homo sapiens, UniProt P04179, Q167N); assay: Decay of superoxide catalyzed by Q143N hMnSOD, stopped-flow spectrophotometry at 5° C.
T5 construct: as a mature protein tagged with an extra Met at the amino terminus; made in house; host or cells: E. coli QC774 (SodA/SodB mutant), pTrc99A
T5 sequence (P04179 25-222 Q167N): T1 sequence (P04179 25-222 H54Q) with Q30H, Q143N
Method: as §1

[6] = Table 4, 20° C., pH 9.4 per footnote
[7] = FIG. 2, Michaelis-Menten fit, H2O, 50 mM glycine buffer, 1 mM EDTA, pH 9.4, 5° C.
[8] = Table 1, stopped-flow spectrophotometry, 5° C., pH 9.4
[9] = Table 2, KINSIM fit of FIG. 8 scheme to stopped-flow data, 5° C., pH 9.4

## [O]O [superoxide]
[1]; Table 4
  kcat: 1.0 ms^.1
  kcat /Km: 43 μM^.1 S^.1
[1]; Table 5
  ko /[E] (rate constant for the zero-order region of catalysis): 510 S^.1
[2]; [6]
  kcat: 3.3 ms^.1
  kcat /Km: 870 μM^.1 S^.1
[2]; Table 5, pH 9.6, 20° C.
  ko /[E] (rate constant for the zero-order region of catalysis): 88 S^.1
[3]; [6]
  kcat: 40 ms^.1
  kcat /Km: 800 μM^.1 S^.1
[3]; Table 5, pH 9.6, 20° C.
  ko /[E] (rate constant for the zero-order region of catalysis): 500 S^.1
[4]
  kcat: 0.052 ms^.1
  kcat /Km: 0.63 μM^.1 S^.1
[5]; [7]
  kcat: 160 s⁻¹
  kcat /Km: 850000 M⁻¹ s⁻¹
[5]; FIG. 3, fit of pH profile pH 8.5 to 10.5, 5° C.
  maximal value of Kcat /Km: ~7×10^6 M^-1 s^-1 and 7±3×10^6 M^-1 s^-1
[5]; FIG. 4, fit of pH profile, 5° C., in 1/s
  maximal value of Kcat: 310±30
[5]; [8]
  kcat: 0.3 ms^-1
  kcat /km: 820000 M⁻¹ s⁻¹
[5]; [9]
  k1: 2e+09 M⁻¹ s⁻¹
  k2: 600 s⁻¹
  k3: 2e+09 M⁻¹ s⁻¹
  k4: 600 s⁻¹
  k-1: 1.5e+06 s⁻¹
  k-4: 1000 M⁻¹ s⁻¹
[5]; Table 2, KINSIM fit, dead-end complex, 5° C., pH 9.4
  k-5: 200 s⁻¹
[5]; Table 2, KINSIM fit, formation of dead-end complex, 5° C., pH 9.4
  k5: 20000 s⁻¹
[5]; observed at pH 9.4, 5° C.
  kcat /Km: 7×10^5 M^1 s^1
[5]; pH dependence (FIG. 4)
  maximal value of Kcat: ~300 s⁻¹
